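Grown in 96-well plates, cells were treated for 48 hours with each compound at five concentrations. Insufficient inhibition: endpoint recorded as highest concentration tested. At the GI50, growth is halved. TGI: total growth inhibition.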
Assays:
Assay in all cases: NCI-60 cell line screen, 48 h
HOP-62 NSCLC = tested on: HOP-62 NSCLC
HT29 colon = tested on: HT29 colon
DU-145 prostate = tested on: DU-145 prostate
U251 CNS = tested on: U251 CNS
PC-3 prostate = tested on: PC-3 prostate
K-562 leukemia = tested on: K-562 leukemia
786-0 renal = tested on: 786-0 renal
HCT-116 colon = tested on: HCT-116 colon
EKVX NSCLC = tested on: EKVX NSCLC
SK-OV-3 ovarian = tested on: SK-OV-3 ovarian
HS 578T breast = tested on: HS 578T breast
MDA-MB-231 breast = tested on: MDA-MB-231 breast
OVCAR-8 ovarian = tested on: OVCAR-8 ovarian
NCI-H460 lung = tested on: NCI-H460 lung
HCT-15 colon = tested on: HCT-15 colon
SK-MEL-2 melanoma = tested on: SK-MEL-2 melanoma
SK-MEL-28 melanoma = tested on: SK-MEL-28 melanoma
HCC-2998 colon = tested on: HCC-2998 colon
MDA-N = tested on: MDA-N
CCRF-CEM leukemia = tested on: CCRF-CEM leukemia
ACHN renal = tested on: ACHN renal
MALME-3M melanoma = tested on: MALME-3M melanoma
MCF7 breast = tested on: MCF7 breast
M14 melanoma = tested on: M14 melanoma
OVCAR-3 ovarian = tested on: OVCAR-3 ovarian
HOP-92 NSCLC = tested on: HOP-92 NSCLC
BT-549 breast = tested on: BT-549 breast
UACC-257 melanoma = tested on: UACC-257 melanoma
SF-268 CNS = tested on: SF-268 CNS
TK-10 renal = tested on: TK-10 renal
SNB-19 CNS = tested on: SNB-19 CNS
MOLT-4 leukemia = tested on: MOLT-4 leukemia
NCI/ADR-RES ovarian = tested on: NCI/ADR-RES ovarian
NCI-H226 lung = tested on: NCI-H226 lung
SN12C renal = tested on: SN12C renal
OVCAR-5 ovarian = tested on: OVCAR-5 ovarian
SF-539 CNS = tested on: SF-539 CNS
HL-60(TB) leukemia = tested on: HL-60(TB) leukemia
T-47D breast = tested on: T-47D breast
CAKI-1 renal = tested on: CAKI-1 renal
OVCAR-4 ovarian = tested on: OVCAR-4 ovarian
RXF 393 renal = tested on: RXF 393 renal
SR leukemia = tested on: SR leukemia
RPMI-8226 leukemia = tested on: RPMI-8226 leukemia
SF-295 CNS = tested on: SF-295 CNS
COLO 205 colon = tested on: COLO 205 colon
NCI-H522 lung = tested on: NCI-H522 lung
IGROV1 ovarian = tested on: IGROV1 ovarian
NCI-H23 lung = tested on: NCI-H23 lung
KM12 colon = tested on: KM12 colon
A498 renal = tested on: A498 renal
A549 NSCLC = tested on: A549 NSCLC
LOX IMVI melanoma = tested on: LOX IMVI melanoma
SK-MEL-5 melanoma = tested on: SK-MEL-5 melanoma
SW-620 colon = tested on: SW-620 colon
UACC-62 melanoma = tested on: UACC-62 melanoma
MDA-MB-435 = tested on: MDA-MB-435
LXFL 529 NSCLC = tested on: LXFL 529 NSCLC
DMS 273 small cell lung = tested on: DMS 273 small cell lung
KM20L2 colon = tested on: KM20L2 colon
SNB-75 CNS = tested on: SNB-75 CNS
DLD-1 colon = tested on: DLD-1 colon
UO-31 renal = tested on: UO-31 renal
SNB-78 CNS = tested on: SNB-78 CNS
HOP-18 NSCLC = tested on: HOP-18 NSCLC

Structure (SMILES): CCN(CC)CCOc1ccc(N2C(=O)c3cc(OC)c(OC)cc3C2=O)cc1
- TGI (HOP-62 NSCLC): > 100 µM
- TGI (HT29 colon): > 100 µM
- TGI (DU-145 prostate): > 100 µM
- TGI (U251 CNS): > 100 µM
- TGI (PC-3 prostate): > 100 µM
- TGI (K-562 leukemia): > 100 µM
- TGI (786-0 renal): > 100 µM
- TGI (HCT-116 colon): > 100 µM
- TGI (EKVX NSCLC): > 100 µM
- TGI (SK-OV-3 ovarian): > 100 µM
- TGI (HS 578T breast): > 100 µM
- TGI (MDA-MB-231 breast): > 100 µM
- TGI (OVCAR-8 ovarian): > 100 µM
- TGI (NCI-H460 lung): > 100 µM
- TGI (HCT-15 colon): > 100 µM
- TGI (SK-MEL-2 melanoma): > 100 µM
- TGI (SK-MEL-28 melanoma): > 100 µM
- TGI (HCC-2998 colon): > 100 µM
- TGI (MDA-N): > 100 µM
- TGI (CCRF-CEM leukemia): > 100 µM
- TGI (ACHN renal): > 100 µM
- TGI (MALME-3M melanoma): > 100 µM
- TGI (MCF7 breast): > 100 µM
- TGI (M14 melanoma): > 100 µM
- TGI (OVCAR-3 ovarian): > 100 µM
- TGI (HOP-92 NSCLC): > 100 µM
- TGI (BT-549 breast): > 100 µM
- TGI (UACC-257 melanoma): > 100 µM
- TGI (SF-268 CNS): > 100 µM
- TGI (TK-10 renal): > 100 µM
- TGI (SNB-19 CNS): > 100 µM
- TGI (MOLT-4 leukemia): > 100 µM
- TGI (NCI/ADR-RES ovarian): > 100 µM
- TGI (NCI-H226 lung): > 100 µM
- TGI (SN12C renal): > 100 µM
- TGI (OVCAR-5 ovarian): > 100 µM
- TGI (SF-539 CNS): > 100 µM
- TGI (HL-60(TB) leukemia): > 100 µM
- TGI (T-47D breast): > 100 µM
- TGI (CAKI-1 renal): > 100 µM
- TGI (OVCAR-4 ovarian): > 100 µM
- TGI (RXF 393 renal): > 100 µM
- TGI (SR leukemia): > 100 µM
- TGI (RPMI-8226 leukemia): > 100 µM
- TGI (SF-295 CNS): > 100 µM
- TGI (COLO 205 colon): > 100 µM
- TGI (NCI-H522 lung): > 100 µM
- TGI (IGROV1 ovarian): > 100 µM
- TGI (NCI-H23 lung): > 100 µM
- TGI (KM12 colon): > 100 µM
- TGI (A498 renal): > 100 µM
- TGI (A549 NSCLC): > 100 µM
- TGI (LOX IMVI melanoma): > 100 µM
- TGI (SK-MEL-5 melanoma): > 100 µM
- TGI (SW-620 colon): > 100 µM
- TGI (UACC-62 melanoma): > 100 µM
- TGI (MDA-MB-435): > 100 µM

Structure (SMILES): CC(=O)[O-].CC(=O)[O-].CC(=O)[O-].CC(=O)[O-].[Mo+2].[Mo+2]
- GI50 (HOP-62 NSCLC): > 100 µM
- TGI (HOP-62 NSCLC): > 100 µM
- GI50 (HT29 colon): > 100 µM
- TGI (HT29 colon): > 100 µM
- GI50 (U251 CNS): > 100 µM
- TGI (U251 CNS): > 100 µM
- GI50 (K-562 leukemia): > 100 µM
- TGI (K-562 leukemia): > 100 µM
- GI50 (786-0 renal): > 100 µM
- TGI (786-0 renal): > 100 µM
- GI50 (HCT-116 colon): > 100 µM
- TGI (HCT-116 colon): > 100 µM
- GI50 (EKVX NSCLC): > 100 µM
- TGI (EKVX NSCLC): > 100 µM
- GI50 (SK-OV-3 ovarian): > 100 µM
- TGI (SK-OV-3 ovarian): > 100 µM
- GI50 (LXFL 529 NSCLC): > 100 µM
- TGI (LXFL 529 NSCLC): > 100 µM
- GI50 (DMS 273 small cell lung): > 100 µM
- TGI (DMS 273 small cell lung): > 100 µM
- GI50 (KM20L2 colon): > 100 µM
- TGI (KM20L2 colon): > 100 µM
- GI50 (OVCAR-8 ovarian): > 100 µM
- TGI (OVCAR-8 ovarian): > 100 µM
- GI50 (NCI-H460 lung): > 100 µM
- TGI (NCI-H460 lung): > 100 µM
- GI50 (HCT-15 colon): > 100 µM
- TGI (HCT-15 colon): > 100 µM
- GI50 (SK-MEL-2 melanoma): > 100 µM
- TGI (SK-MEL-2 melanoma): > 100 µM
- GI50 (SK-MEL-28 melanoma): > 100 µM
- TGI (SK-MEL-28 melanoma): > 100 µM
- GI50 (HCC-2998 colon): > 100 µM
- TGI (HCC-2998 colon): > 100 µM
- GI50 (SNB-75 CNS): 63.5 µM
- TGI (SNB-75 CNS): > 100 µM
- GI50 (CCRF-CEM leukemia): > 100 µM
- TGI (CCRF-CEM leukemia): > 100 µM
- GI50 (ACHN renal): > 100 µM
- TGI (ACHN renal): > 100 µM
- GI50 (MALME-3M melanoma): > 100 µM
- TGI (MALME-3M melanoma): > 100 µM
- GI50 (M14 melanoma): > 100 µM
- TGI (M14 melanoma): > 100 µM
- GI50 (OVCAR-3 ovarian): > 100 µM
- TGI (OVCAR-3 ovarian): > 100 µM
- GI50 (HOP-92 NSCLC): 39.9 µM
- TGI (HOP-92 NSCLC): > 100 µM
- GI50 (UACC-257 melanoma): > 100 µM
- TGI (UACC-257 melanoma): > 100 µM
- GI50 (SF-268 CNS): > 100 µM
- TGI (SF-268 CNS): > 100 µM
- GI50 (TK-10 renal): > 100 µM
- TGI (TK-10 renal): > 100 µM
- GI50 (SNB-19 CNS): > 100 µM
- TGI (SNB-19 CNS): > 100 µM
- GI50 (MOLT-4 leukemia): > 100 µM
- TGI (MOLT-4 leukemia): > 100 µM
- GI50 (NCI-H226 lung): > 100 µM
- TGI (NCI-H226 lung): > 100 µM
- GI50 (SN12C renal): > 100 µM
- TGI (SN12C renal): > 100 µM
- GI50 (OVCAR-5 ovarian): > 100 µM
- TGI (OVCAR-5 ovarian): > 100 µM
- GI50 (SF-539 CNS): > 100 µM
- TGI (SF-539 CNS): > 100 µM
- GI50 (HL-60(TB) leukemia): > 100 µM
- TGI (HL-60(TB) leukemia): > 100 µM
- GI50 (DLD-1 colon): > 100 µM
- TGI (DLD-1 colon): > 100 µM
- GI50 (CAKI-1 renal): > 100 µM
- TGI (CAKI-1 renal): > 100 µM
- GI50 (OVCAR-4 ovarian): > 100 µM
- TGI (OVCAR-4 ovarian): > 100 µM
- GI50 (RXF 393 renal): > 100 µM
- TGI (RXF 393 renal): > 100 µM
- GI50 (RPMI-8226 leukemia): > 100 µM
- TGI (RPMI-8226 leukemia): > 100 µM
- GI50 (UO-31 renal): > 100 µM
- TGI (UO-31 renal): > 100 µM
- GI50 (SF-295 CNS): > 100 µM
- TGI (SF-295 CNS): > 100 µM
- GI50 (COLO 205 colon): > 100 µM
- TGI (COLO 205 colon): > 100 µM
- GI50 (SNB-78 CNS): > 100 µM
- TGI (SNB-78 CNS): > 100 µM
- GI50 (NCI-H522 lung): > 100 µM
- TGI (NCI-H522 lung): > 100 µM
- GI50 (IGROV1 ovarian): > 100 µM
- TGI (IGROV1 ovarian): > 100 µM
- GI50 (NCI-H23 lung): > 100 µM
- TGI (NCI-H23 lung): > 100 µM
- GI50 (KM12 colon): > 100 µM
- TGI (KM12 colon): > 100 µM
- GI50 (HOP-18 NSCLC): > 100 µM
- TGI (HOP-18 NSCLC): > 100 µM
- GI50 (A498 renal): > 100 µM
- TGI (A498 renal): > 100 µM
- GI50 (A549 NSCLC): > 100 µM
- TGI (A549 NSCLC): > 100 µM
- GI50 (LOX IMVI melanoma): > 100 µM
- TGI (LOX IMVI melanoma): > 100 µM
- GI50 (SK-MEL-5 melanoma): > 100 µM
- TGI (SK-MEL-5 melanoma): > 100 µM
- GI50 (SW-620 colon): > 100 µM
- TGI (SW-620 colon): > 100 µM
- GI50 (UACC-62 melanoma): > 100 µM
- TGI (UACC-62 melanoma): > 100 µM

— PubChem BioAssay (NCI)
